Data reported in article PMC7698151, “Evidence for Pentapeptide-Dependent and Independent CheB Methylesterases” (International Journal of Molecular Sciences, 2020).
Several values for one entry are separate records, joined by “and”; a condition that tells them apart may be missing. Equal values may be shown once. Where no end group is shown, it is not given here.

Legend:
[1] = tested on: CheR from E. coli; conditions: cited from earlier work
From the text: This pentapeptide, NWETF, represents an additional binding site for CheR and CheB [8, 9]. […] St ...

[2] = target: T1, CheB2 (Pseudomonas aeruginosa, UniProt Q9I6V9); test: Microcalorimetric titration (ITC) of CheB2 with the McpB pentapeptide; parameters: species or system Pseudomonas aeruginosa PAO1; conditions: 25 °C, 15-40 μM protein in 5-mM Tris/HCl, 5-mM Pipes, 5-mM Mes, pH 7.0, titrated with 1-7 mM peptide, one binding site model, read-out: dissociation constant (KD)
T1 construct: His-tag (pET28b) (N); made in house; host or cells: E. coli BL21 (DE3)
T1 sequence (Q9I6V9 whole entry): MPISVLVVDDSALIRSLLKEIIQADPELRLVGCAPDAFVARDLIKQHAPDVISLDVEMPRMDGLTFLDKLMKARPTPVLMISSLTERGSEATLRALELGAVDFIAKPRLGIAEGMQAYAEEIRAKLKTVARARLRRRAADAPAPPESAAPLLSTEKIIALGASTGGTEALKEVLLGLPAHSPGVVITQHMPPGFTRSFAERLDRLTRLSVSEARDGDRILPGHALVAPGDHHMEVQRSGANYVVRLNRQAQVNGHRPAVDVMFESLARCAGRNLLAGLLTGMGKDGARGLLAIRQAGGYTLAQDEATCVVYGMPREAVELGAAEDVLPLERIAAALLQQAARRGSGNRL
Method: To verify which CheB homolog interacts with this peptide, the four CheB homologs were overexpressed in E. coli, purified, and submitted to microcalorimetric titrations with the pentapeptide of the McpB receptor, GWEEF.
Microcalorimetric titrations of the four CheB homologs (15 to 40 μM) with 14-μL aliquots (1 to 7 mM) of the GWEEF pentapeptide. […] Data were fitted using the “one binding site model” of the MicroCal version of ORIGIN.
(§1) All experiments were conducted on a VP microcalorimeter (Microcal, Amherst, MA, USA) at 25 °C. For the analysis of the CheB homologs of P. aeruginosa, 15–40 μM of proteins (dialyzed into 5-mM Tris/HCl, 5-mM Pipes, and 5-mM Mes, pH 7.0) were placed into the sample cell and titrated with 1–7-mM solution of the GWEEF peptide (synthesized by Biomedal S.L., Seville, Spain). […] All ligand solutions were prepared in dialysis buffer immediately before use. The mean enthalpies measured from the injection of the peptide into the buffer were subtracted from the raw titration data prior to data analysis with the “one binding site model” of the MicroCal version of ORIGIN.

[3] = target: T2, CheB2 D55E mutant protein (Pseudomonas aeruginosa, UniProt Q9I6V9, D55E); test: Microcalorimetric titration (ITC) of the CheB2 D55E mutant with the GWEEF peptide; assay type: binding, Pseudomonas aeruginosa PAO1
T2 construct: His-tag (pET28b) (N); made in house; host or cells: E. coli BL21 (DE3)
T2 sequence (Q9I6V9 1-349 D55E): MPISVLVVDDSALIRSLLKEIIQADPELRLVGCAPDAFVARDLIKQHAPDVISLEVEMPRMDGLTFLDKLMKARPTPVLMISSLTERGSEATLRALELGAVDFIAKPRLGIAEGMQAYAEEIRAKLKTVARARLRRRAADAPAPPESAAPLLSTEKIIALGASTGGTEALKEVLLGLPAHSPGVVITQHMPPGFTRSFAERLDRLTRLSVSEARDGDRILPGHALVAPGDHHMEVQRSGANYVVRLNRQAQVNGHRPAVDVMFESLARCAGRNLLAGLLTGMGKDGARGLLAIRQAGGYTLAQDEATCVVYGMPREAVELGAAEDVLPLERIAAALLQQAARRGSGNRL
Method: as §1

NWETF [C-terminal pentapeptide of E. coli Tar/Tsr and of eight P. atrosepticum SCRI1043 chemoreceptors]
Kd [1]: 2 µM and ~2 µM

GWEEF [GWEEF]
Kd [2]: 0.093 mM
Kd [3]: 56 ± 14 µM
